Source: ChEMBL document CHEMBL5214923, “Contemporary mTOR inhibitor scaffolds to diseases breakdown: A patent review (2015-2021)” (Eur J Med Chem, 2022)

What was measured:
mTORC1 [1] = biological target: T1, mTORC1 (Homo sapiens, UniProt P42345+Q8N122+Q9BVC4); assay: Inhibition of mTORC1 in human Jurkat cells assessed as inhibition of S6K phosphorylation incubated for 4 hrs by Western blot analysis; type: cell-based
[2] = biological target: Peptidyl-prolyl cis-trans isomerase FKBP1A (Homo sapiens, UniProt P62942); assay: Binding affinity to FKBP12 (unknown origin) assessed as inhibition constant
[3] = Antitumor activity against human U-87 MG cells assessed as cell growth inhibition; type: functional, cell-based, U-87MG ATCC
PC-3 = assay: Antitumor activity against human PC-3 cells assessed as cell growth inhibition; type: functional, cell-based
SF-268 = assay: Antitumor activity against human SF-268 cells assessed as cell growth inhibition; type: functional, cell-based
DU-145 = assay: Antitumor activity against human DU-145 cells assessed as cell growth inhibition; type: functional, cell-based
[4] = biological target: Phosphatidylinositol 4,5-bisphosphate 3-kinase catalytic subunit beta isoform (Homo sapiens, UniProt P42338); assay: Inhibition of PI3Kbeta (unknown origin) by TR-FRET assay
[5] = biological target: T2, Phosphatidylinositol 4,5-bisphosphate 3-kinase catalytic subunit alpha isoform (Homo sapiens, UniProt P42336); assay: Inhibition of PI3Kalpha (unknown origin) by TR-FRET assay
[6] = biological target: T3, Phosphatidylinositol 4,5-bisphosphate 3-kinase catalytic subunit gamma isoform (Homo sapiens, UniProt P48736); assay: Inhibition of PI3Kgamma (unknown origin) by TR-FRET assay
[7] = biological target: T4, Phosphatidylinositol 4,5-bisphosphate 3-kinase catalytic subunit delta isoform (Homo sapiens, UniProt O00329); assay: Inhibition of PI3Kdelta (unknown origin) by TR-FRET assay
T4 sequence (O00329 whole entry): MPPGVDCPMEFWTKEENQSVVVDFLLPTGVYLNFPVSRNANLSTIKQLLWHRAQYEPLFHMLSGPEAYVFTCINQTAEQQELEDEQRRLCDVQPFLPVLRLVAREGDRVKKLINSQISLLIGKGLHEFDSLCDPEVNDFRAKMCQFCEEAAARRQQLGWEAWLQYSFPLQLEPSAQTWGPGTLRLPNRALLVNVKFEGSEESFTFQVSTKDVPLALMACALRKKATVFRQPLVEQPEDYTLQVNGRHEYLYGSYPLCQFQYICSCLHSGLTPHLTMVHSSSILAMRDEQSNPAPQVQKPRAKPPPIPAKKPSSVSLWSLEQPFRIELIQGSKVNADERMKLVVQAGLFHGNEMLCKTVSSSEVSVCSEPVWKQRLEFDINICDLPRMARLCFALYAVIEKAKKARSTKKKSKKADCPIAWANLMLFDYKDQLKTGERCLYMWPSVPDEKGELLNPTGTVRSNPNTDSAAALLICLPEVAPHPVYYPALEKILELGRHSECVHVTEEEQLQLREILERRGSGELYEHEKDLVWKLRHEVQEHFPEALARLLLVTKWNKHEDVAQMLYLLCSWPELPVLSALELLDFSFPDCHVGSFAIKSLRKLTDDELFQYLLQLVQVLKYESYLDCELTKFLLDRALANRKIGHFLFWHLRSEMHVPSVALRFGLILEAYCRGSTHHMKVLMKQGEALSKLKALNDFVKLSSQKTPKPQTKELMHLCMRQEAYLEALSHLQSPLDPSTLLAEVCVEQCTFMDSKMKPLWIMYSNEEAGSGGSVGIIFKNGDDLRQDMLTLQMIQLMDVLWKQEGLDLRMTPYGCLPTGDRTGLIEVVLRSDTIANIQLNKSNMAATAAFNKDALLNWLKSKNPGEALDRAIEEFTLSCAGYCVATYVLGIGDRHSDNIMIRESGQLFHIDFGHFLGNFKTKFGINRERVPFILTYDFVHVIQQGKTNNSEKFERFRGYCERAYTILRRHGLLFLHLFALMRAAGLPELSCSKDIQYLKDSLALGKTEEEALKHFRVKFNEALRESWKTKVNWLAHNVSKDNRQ

[8] = Solubility of the compound in water; type: physicochemical
A549 = assay: Antitumor activity against human A549 cells assessed as cell growth inhibition incubated for 72 hrs by Cell Titer-Glo assay; type: functional, cell-based; details: A549, 72 h
[9] = biological target: T5, Serine/threonine-protein kinase mTOR (Homo sapiens, UniProt P42345); assay: Inhibition of mTOR (unknown origin) assessed as residual activity at 30 nM relative to control; values are per cent of control
[10] = biological target: T4, Phosphatidylinositol 4,5-bisphosphate 3-kinase catalytic subunit delta isoform; assay: Inhibition of human PI3Kdelta preincubated for 15 mins followed by ATP addition measured after 1 hr by TR-FRET assay
mTORC1 [11] = biological target: T1, mTORC1; assay: Inhibition of mTORC1 (unknown origin); type: protein-complex assay
[12] = biological target: T3, Phosphatidylinositol 4,5-bisphosphate 3-kinase catalytic subunit gamma isoform; assay: Inhibition of human PI3Kgamma preincubated for 15 mins followed by ATP addition measured after 1 hr by TR-FRET assay
[13] = biological target: T2, Phosphatidylinositol 4,5-bisphosphate 3-kinase catalytic subunit alpha isoform; assay: Inhibition of human PI3Kalpha preincubated for 15 mins followed by ATP addition measured after 1 hr by TR-FRET assay
[14] = biological target: T5, Serine/threonine-protein kinase mTOR; assay: Inhibition of mTOR (unknown origin)
mTORC2 = mTORC2 (Homo sapiens, UniProt P42345+Q6R327+Q9BPZ7+Q9BVC4); assay: Inhibition of mTORC2 (unknown origin); type: protein-complex assay
[15] = biological target: T2, Phosphatidylinositol 4,5-bisphosphate 3-kinase catalytic subunit alpha isoform; assay: Inhibition of PI3Kalpha (unknown origin)
[16] = biological target: PI3-kinase p110-alpha/p85-alpha (Homo sapiens, UniProt P42336); assay: Inhibition of PI3K p110alpha/p85alpha (unknown origin) using PIP2 as substrate preincubated for 15 mins followed by substrate addition measured after 1 hr in presence of ATP by TR-FRET assay; type: protein-complex assay
[17] = biological target: T5, Serine/threonine-protein kinase mTOR; assay: Inhibition of recombinant mTOR (unknown origin) using GFP-4E-BP1 as substrate preincubated for 15 mins followed by substrate addition measured after 1 hr by TR-FRET assay

T2 sequence (P42336 whole entry, canonical isoform): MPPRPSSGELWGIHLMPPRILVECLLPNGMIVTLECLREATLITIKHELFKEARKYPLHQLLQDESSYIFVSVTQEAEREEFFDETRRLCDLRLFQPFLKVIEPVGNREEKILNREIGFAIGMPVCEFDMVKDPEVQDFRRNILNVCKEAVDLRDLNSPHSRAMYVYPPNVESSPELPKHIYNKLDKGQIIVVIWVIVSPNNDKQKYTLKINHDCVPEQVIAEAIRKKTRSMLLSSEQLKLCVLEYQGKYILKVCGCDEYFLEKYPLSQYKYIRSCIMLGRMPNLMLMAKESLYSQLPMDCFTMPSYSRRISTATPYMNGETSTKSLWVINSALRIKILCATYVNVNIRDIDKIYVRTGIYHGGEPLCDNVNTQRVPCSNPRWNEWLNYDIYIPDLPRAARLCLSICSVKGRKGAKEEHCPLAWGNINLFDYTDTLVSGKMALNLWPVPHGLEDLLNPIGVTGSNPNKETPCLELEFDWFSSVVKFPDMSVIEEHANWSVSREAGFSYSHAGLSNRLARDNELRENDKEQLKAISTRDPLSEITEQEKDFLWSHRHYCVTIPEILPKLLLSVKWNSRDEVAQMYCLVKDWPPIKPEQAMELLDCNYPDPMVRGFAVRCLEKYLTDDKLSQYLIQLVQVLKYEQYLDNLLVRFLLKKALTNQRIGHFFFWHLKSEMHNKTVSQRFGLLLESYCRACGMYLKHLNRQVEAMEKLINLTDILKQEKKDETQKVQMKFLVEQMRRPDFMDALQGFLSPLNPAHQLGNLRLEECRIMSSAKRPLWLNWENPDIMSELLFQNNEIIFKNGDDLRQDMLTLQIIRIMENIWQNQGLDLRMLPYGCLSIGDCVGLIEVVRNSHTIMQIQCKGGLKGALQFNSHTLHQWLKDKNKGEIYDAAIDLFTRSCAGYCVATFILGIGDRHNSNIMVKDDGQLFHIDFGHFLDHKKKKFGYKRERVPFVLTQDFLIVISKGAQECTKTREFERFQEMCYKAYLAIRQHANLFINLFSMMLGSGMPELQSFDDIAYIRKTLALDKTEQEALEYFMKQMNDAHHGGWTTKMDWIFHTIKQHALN
T3 sequence (P48736 whole entry, canonical isoform): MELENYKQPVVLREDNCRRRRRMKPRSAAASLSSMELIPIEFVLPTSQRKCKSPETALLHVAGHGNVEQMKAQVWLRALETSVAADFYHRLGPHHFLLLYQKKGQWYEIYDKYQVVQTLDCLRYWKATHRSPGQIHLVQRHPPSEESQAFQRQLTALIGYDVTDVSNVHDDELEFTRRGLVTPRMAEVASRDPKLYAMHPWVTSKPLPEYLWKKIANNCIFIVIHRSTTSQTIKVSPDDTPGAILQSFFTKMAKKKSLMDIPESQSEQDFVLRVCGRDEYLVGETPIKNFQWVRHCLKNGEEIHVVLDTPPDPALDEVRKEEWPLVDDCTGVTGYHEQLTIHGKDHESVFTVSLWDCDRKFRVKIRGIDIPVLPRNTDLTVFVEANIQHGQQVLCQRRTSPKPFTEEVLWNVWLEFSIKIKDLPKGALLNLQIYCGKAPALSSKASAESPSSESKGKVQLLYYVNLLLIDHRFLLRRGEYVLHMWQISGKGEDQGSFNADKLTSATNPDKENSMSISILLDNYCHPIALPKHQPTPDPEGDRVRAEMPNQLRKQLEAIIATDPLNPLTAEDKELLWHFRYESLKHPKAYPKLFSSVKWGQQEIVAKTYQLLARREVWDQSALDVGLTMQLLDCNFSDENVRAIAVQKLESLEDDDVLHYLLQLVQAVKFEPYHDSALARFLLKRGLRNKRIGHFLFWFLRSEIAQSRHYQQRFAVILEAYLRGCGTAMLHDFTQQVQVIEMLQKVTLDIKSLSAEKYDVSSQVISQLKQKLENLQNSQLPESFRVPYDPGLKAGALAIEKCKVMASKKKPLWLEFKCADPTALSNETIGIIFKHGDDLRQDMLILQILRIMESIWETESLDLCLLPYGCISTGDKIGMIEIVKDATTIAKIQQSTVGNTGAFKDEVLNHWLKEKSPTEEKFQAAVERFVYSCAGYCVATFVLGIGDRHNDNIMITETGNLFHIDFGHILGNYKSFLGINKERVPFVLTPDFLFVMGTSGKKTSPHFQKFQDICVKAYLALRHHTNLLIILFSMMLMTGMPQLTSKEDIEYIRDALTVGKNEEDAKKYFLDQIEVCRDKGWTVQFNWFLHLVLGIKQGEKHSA
Sequence of mTORC2 (Q6R327 whole entry, other chains not shown, canonical isoform): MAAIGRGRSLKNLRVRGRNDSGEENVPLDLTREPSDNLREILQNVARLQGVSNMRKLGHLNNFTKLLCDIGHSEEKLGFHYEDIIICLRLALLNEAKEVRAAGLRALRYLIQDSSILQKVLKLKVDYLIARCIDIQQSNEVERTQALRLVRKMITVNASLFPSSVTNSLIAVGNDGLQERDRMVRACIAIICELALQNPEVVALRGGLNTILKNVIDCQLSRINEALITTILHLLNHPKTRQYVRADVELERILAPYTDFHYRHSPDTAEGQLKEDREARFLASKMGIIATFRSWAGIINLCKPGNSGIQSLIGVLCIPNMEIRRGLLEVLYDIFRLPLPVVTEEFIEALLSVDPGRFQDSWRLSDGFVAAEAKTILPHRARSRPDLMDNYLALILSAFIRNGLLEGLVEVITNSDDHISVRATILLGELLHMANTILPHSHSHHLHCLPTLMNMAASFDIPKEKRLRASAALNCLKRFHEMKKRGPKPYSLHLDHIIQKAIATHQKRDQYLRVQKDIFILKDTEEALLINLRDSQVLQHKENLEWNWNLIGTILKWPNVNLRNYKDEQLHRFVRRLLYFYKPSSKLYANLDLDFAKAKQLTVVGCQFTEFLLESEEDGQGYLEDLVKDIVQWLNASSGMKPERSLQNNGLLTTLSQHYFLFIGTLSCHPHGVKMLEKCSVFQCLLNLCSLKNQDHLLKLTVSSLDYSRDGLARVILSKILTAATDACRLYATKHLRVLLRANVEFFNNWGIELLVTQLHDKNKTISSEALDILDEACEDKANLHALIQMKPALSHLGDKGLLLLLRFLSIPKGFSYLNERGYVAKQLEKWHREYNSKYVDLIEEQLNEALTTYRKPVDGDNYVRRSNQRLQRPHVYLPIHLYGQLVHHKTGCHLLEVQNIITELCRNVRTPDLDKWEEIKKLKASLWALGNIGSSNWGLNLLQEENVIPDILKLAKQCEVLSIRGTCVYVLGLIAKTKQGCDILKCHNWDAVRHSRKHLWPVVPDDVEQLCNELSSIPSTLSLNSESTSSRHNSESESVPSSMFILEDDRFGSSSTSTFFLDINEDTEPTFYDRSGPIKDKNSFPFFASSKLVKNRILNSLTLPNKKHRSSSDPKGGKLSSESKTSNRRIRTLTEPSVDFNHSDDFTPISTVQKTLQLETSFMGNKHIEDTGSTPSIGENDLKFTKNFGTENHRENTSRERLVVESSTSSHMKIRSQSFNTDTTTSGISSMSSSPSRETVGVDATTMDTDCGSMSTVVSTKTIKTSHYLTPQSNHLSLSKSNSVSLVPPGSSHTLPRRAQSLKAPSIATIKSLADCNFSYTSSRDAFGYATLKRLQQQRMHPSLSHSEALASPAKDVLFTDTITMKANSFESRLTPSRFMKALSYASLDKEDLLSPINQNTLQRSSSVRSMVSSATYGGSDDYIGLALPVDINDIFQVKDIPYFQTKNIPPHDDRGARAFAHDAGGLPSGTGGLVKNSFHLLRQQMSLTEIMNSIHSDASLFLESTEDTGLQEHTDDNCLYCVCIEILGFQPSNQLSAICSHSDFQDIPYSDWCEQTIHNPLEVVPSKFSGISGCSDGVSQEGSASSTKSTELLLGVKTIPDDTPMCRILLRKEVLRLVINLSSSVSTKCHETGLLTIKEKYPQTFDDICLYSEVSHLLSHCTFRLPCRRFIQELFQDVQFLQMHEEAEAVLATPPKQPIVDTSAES
Sequence of mTORC2 (Q9BPZ7 2-522 limits assumed, other chains not shown): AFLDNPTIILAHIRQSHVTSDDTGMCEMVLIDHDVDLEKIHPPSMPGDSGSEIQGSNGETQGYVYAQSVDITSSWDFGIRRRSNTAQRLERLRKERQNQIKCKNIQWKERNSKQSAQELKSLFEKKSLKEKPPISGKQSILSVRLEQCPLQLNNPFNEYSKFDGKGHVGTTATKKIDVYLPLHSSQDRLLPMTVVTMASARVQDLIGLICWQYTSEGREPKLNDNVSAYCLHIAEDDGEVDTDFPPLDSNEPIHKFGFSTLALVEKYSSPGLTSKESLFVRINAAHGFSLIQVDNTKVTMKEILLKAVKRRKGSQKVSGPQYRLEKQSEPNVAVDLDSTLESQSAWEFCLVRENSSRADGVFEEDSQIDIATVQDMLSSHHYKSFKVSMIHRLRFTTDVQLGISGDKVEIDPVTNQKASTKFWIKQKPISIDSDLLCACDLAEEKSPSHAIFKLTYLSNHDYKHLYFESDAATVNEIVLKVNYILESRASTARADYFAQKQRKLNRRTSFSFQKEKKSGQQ
Sequence of mTORC2 (Q9BVC4 whole entry, other chains not shown, canonical isoform): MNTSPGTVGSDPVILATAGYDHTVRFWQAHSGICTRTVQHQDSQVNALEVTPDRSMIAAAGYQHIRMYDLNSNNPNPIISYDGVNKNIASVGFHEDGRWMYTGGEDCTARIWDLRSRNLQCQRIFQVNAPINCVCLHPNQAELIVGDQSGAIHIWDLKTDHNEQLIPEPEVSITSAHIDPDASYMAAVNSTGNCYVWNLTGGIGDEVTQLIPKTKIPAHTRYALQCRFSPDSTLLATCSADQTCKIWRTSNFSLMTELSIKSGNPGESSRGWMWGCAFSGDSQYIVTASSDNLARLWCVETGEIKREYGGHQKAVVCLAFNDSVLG
Sequence of Peptidyl-prolyl cis-trans isomerase FKBP1A (P62942 whole entry): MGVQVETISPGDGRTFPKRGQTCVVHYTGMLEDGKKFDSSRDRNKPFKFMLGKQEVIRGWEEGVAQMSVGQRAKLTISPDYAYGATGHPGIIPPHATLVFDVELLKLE

Compound: CO[C@@H]1C[C@@H]2CC[C@@H](C)[C@@](O)(O2)C(=O)C(=O)N2CCCC[C@H]2C(=O)OC([C@H](C)C[C@@H]2C[C@@H]3C[C@H]2C[C@H]3O)CC(=O)[C@H](C)/C=C(\C)[C@@H](O)[C@@H](OC)C(=O)[C@H](C)C[C@H](C)/C=C/C=C/C=C/1C (some centres undefined)
- IC50 (mTORC1 [1]): 0.1 nM
- Ki [2]: 3.9 nM
- IC50 [3]: 2.2 nM
- IC50 (PC-3): 2.5 nM
- IC50 (SF-268): 0.19 nM
- IC50 (DU-145): 2.7 nM

Compound: NOCCOCCOCCOCCC(=O)N1CCN(c2cnc3ccc(-c4cnc(Cl)c(NS(=O)(=O)c5ccc(F)cc5)c4)cc3n2)CC1
- IC50 [4]: 30.2 nM
- IC50 [5]: < 4.95 nM
- IC50 [6]: 1.33 nM
- IC50 [7]: < 0.495 nM

Compound: CO[C@@H]1C[C@@H]2CC[C@@H](C)[C@@](O)(O2)C(=O)C(=O)N2CCCC[C@H]2C(=O)O[C@H]([C@H](C)C[C@@H]2CC[C@@H](OC(=O)C[n+]3csc(C)c3C)[C@H](OC)C2)CC(=O)[C@H](C)/C=C(\C)[C@@H](OC(=O)C[n+]2csc(C)c2C)[C@@H](OC)C(=O)[C@H](C)C[C@H](C)/C=C/C=C/C=C/1C.[Br-].[Br-]
- solubility [8]: 100 mg/mL
- IC50 (A549): 6230 nM

Compound: CC(C)(C#N)c1ccc(-n2c3c4cc(-c5ccc(NC(=O)CNC6CCCCC6)nc5)ccc4ncc3n3cnnc23)cc1
- residual activity [9]: < 5%

Compound: COc1cccc2cc(-c3nn(C4CCOCC4)c4ncnc(N)c34)[nH]c12
- IC50 [10]: 10 nM
- IC50 (mTORC1 [11]): < 5 nM
- IC50 [12]: 10 nM
- IC50 [13]: 100 nM

Compound: O=c1[nH]c2ncc(-c3ccc(-c4nc[nH]n4)cc3)nc2n1CCC1CCOCC1
- IC50 [14]: 18 nM
- IC50 (mTORC1 [11]): 2 nM
- IC50 (mTORC2): 40 nM

Compound: CO[C@@H]1C[C@@H]2CC[C@@H](C)[C@@](O)(O2)C(=O)C(=O)N2CCCC[C@H]2C(=O)O[C@H]([C@H](C)C[C@@H]2CC[C@@H](OC(=O)C[n+]3csc(C)c3C)[C@H](OC)C2)CC(=O)[C@H](C)/C=C(\C)[C@@H](O)[C@@H](OC)C(=O)[C@H](C)C[C@H](C)/C=C/C=C/C=C/1C.[Br-]
- solubility [8]: 4.2 mg/mL
- IC50 (A549): 7400 nM

Compound: CN(C)CC(=O)Nc1ccc(-c2ccc3ncc4c(c3c2)n(-c2ccc(C(C)(C)C#N)cc2)c2nncn42)cn1
- residual activity [9]: < 5%

Compound: CC(C)(O)c1ccc(-c2cnc3c(n2)N(CC2CCOCC2)CC(=O)N3)cn1
- IC50 [15]: > 30000 nM

Compound: CC(C)(O)c1ccc(-c2cnc3[nH]c(=O)n(CC4CCOCC4)c3n2)cn1
- IC50 [14]: 2550 nM
- IC50 (mTORC1 [11]): 176 nM
- IC50 (mTORC2): 2410 nM

Compound: CO[C@H]1C[C@@H]2CC[C@@H](C)[C@@](O)(O2)C(=O)C(=O)N2CCCC[C@H]2C(=O)O[C@H]([C@H](C)C[C@@H]2CC[C@@H](O)[C@H](OC)C2)CC(=O)[C@H](C)/C=C(\C)[C@@H](O)[C@@H](OC)C(=O)[C@H](C)C[C@H](C)/C=C/C=C/C=C/1C [SIROLIMUS]
- IC50 [3]: 10000 nM
- IC50 (PC-3): 1300 nM
- IC50 (A549): 49400 nM
- IC50 (SF-268): 2700 nM
- IC50 (DU-145): 4000 nM

Compound: CN(C)C(=O)C1CCC(Oc2nc(-c3ccc(N)nc3)nc(N3CCOCC3)n2)CC1 (centres undefined)
- IC50 [16]: < 1000 nM
- IC50 [17]: < 1000 nM

Compound: CC(=O)N1CCC(n2nc(-c3cc4cc(O)cc(Cl)c4[nH]3)c3c(N)ncnc32)CC1
- IC50 [10]: 10 nM
- IC50 (mTORC1 [11]): < 5 nM
- IC50 [12]: 50 nM
- IC50 [13]: 100 nM

Compound: Nc1ncnc2c1c(-c1cc3cc(O)cc(Cl)c3[nH]1)nn2C1CCOCC1
- IC50 [10]: 10 nM
- IC50 (mTORC1 [11]): < 5 nM
- IC50 [12]: 25 nM
- IC50 [13]: 100 nM

Compound: O=S(=O)(Nc1cc(-c2ccc3ncc(N4CCNCC4)nc3c2)cnc1Cl)c1ccc(F)cc1
- IC50 [4]: 4.77 nM
- IC50 [6]: 5.14 nM
